In US11098006B2, “Lipids and complexes for the delivery of biologically-active material to cells” (RYBOQUIN COMPANY LTD, priority 2016, dated 2021):

Tests used:
COS.7 cells = conditions: cited from earlier work
[1] = system: NIH3T3 murine fibroblasts; assay: In vitro transfection with LPD formulations, luciferase reporter assay; type: cell-based; conditions: NIH3T3 cells; LPD with peptide ME27 and plasmid pCI-Luc; FIG. 1
Procedure: (§1) Cells tested included 1HAEo-human airway epithelial cells, NIH3T3 murine fibroblasts, and Neuro2A murine neuroblastoma cells. Cells were seeded into 96-well plates at approximately 2×10^4 cells per well, then incubated overnight at 37° C. in complete growth medium. The following day, lipopolyplex (LPD) formulations were prepared essentially as described previously (Hart et al., 1998), by mixing the components in the following order: 50 μl of lipid (L) at 80 μg/ml in OptiMEM, 70 μl of peptide (P) at 110 μg/ml in OptiMEM and 50 μl of plasmid pCI-Luc (D) at 40 μg/ml in OptiMEM corresponding to a weight ratio of 2:4:1, respectively. […] The cells were incubated with the complexes for 4 h at 37° C. before replacing with fresh media for 24 h, after which reporter gene expression was analyzed by luciferase assay (Promega, Madison, Wis., USA). […]
(§2) Cells were washed once with PBS before the addition of 20 μl of 1× Reporter Lysis Buffer (Promega, Madison, Wis., USA) to the cells for 20 min at 4° C. before freezing at −80° C. for at least 30 min, followed by thawing at room temperature. Then the luciferase activity was measured during 10 seconds using the Luciferase Assay System (Promega, Madison, Wis., USA) and an Optima Fluostar plate reader (BMG Labtech). […] In vitro luciferase activity was expressed as Relative Light Units (RLU) per milligram of protein (RLU/mg).

[2] = system: 1HAEo- human airway epithelial cells; assay: as above; type: cell-based; conditions: 1HAEo- cells; LPD with peptide ME27 and plasmid pCI-Luc; FIG. 2
Procedure: as §1, §2

[3] = Size of LPD nanoparticles by dynamic light scattering; type: physicochemical; conditions: peptide ME27; weight ratio 0.75:4:1 (L:P:D); FIG. 7
Procedure: The size of LPD nanoparticles containing peptides ME27 with lipids FMM30 or FMM30/DPE were determined at different weight ratios of liposome to DNA (w/w) by dynamic light scattering using a NanoZS Zetasizer (Malvern).

[4] = Transmission electron microscope imaging of LPD particles; type: physicochemical; conditions: peptide ME27; weight ratio 0.75:4:1 (L:P:D); FIG. 5 and FIG. 6
Text: Transmission Electon Microscope images of LPD particles comprising FMM30 with peptide ME27 at a weight ratio of 0.75:4:1 (L:P:D) is shown in FIG. 5 (FMM30-PD-0.75) and lipids FMM30/DOPE at the same weight ratio is shown in FIG. 6 (FMM30/DOPE-PD 0.75).

many cell types = conditions: cited from earlier work
[5] = cited from earlier work

CCCCCCCC/C=C\CCCCCCCCOCC(C[N+](C)(C)CCO)OCCCCCCCC/C=C\CCCCCCCC.[Br-] (stereo not drawn) [DORIE 6]
transfection efficacies in COS.7 cells (COS.7 cells; co-formulation with helper lipid DOPE 2, compared to lipids with hydroxypropyl-hydroxypentyl groups): higher transfection efficacies

CCCCCCCCCCCCCCOCC(C[N+](C)(C)CCO)OCCCCCCCCCCCCCC.[Br-] (stereo not drawn) [DMRIE 7]
transfection activity of hydroxyalkyl cytofectins (COS.7 cells; compared with DOTMA 1): one of the more efficient lipids

CCCCCCCC/C=C\CCCCCCCCOCC(C[N+](C)(C)CCOCCOCCOCCOC(=O)CCCCCCC/C=C\CCCCCCCC)OCCCCCCCC/C=C\CCCCCCCC (stereo not drawn) [FMM30, (9Z)—N-(2,3-bis((9Z)-octadecenyloxy)propyl)-N,N-dimethyl-13-oxo-3,6,9,12-tetraoxatriacont-21-en-1-aminium bromide]
transfection levels [1]: far higher than the bi-chain lipid CH300 | transfection levels [2]: far higher than the bi-chain lipid CH300 | size of LPD nanoparticles [3]: approximately 80 nm | particle size and shape in TEM images [4]: quite similar sizes with a combination of shapes including rods and spheres

CCCCCCCC/C=C\CCCCCCCCOCC(C[N+](C)(C)C)OCCCCCCCC/C=C\CCCCCCCC.[Cl-] (stereo not drawn) [DOTMA 1]
levels of transfection in vitro (many cell types): comparable levels of transfection | transfection activities in vivo [5]: exhibited higher transfection activities

CCCCCCCC/C=C\CCCCCCCC(=O)OCC(C[N+](C)(C)C)OC(=O)CCCCCCC/C=C\CCCCCCCC (stereo not drawn) [DOTAP 4]
levels of transfection in vitro (many cell types): comparable levels of transfection
